Test [1] concerns the target T1, PTPN2 (Homo sapiens, UniProt P17706).
T1 construct: PTPN2, residues 1-387; made in house; host or cells: E. coli BL21(DE3)
T1 sequence (P17706 1-387 isoform P17706-2): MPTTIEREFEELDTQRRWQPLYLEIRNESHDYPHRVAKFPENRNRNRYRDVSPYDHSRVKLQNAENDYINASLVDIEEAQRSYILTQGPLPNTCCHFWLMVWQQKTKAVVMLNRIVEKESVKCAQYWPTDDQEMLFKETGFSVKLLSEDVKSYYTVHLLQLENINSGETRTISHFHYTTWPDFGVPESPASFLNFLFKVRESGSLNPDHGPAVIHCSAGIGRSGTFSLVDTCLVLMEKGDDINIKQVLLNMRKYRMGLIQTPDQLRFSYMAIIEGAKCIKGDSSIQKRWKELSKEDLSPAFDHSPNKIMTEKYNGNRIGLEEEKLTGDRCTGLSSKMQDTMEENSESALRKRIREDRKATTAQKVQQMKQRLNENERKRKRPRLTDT
Description: PTP inhibition assay with DiFMUP substrate (IC50). The format is biochemical. Conditions: DiFMUP 10 μM as substrate. On the procedure:
E. coli BL21(DE3) (Novagen) was used as an expression host and the induction of protein expression was carried out in LB media with 1 mM IPTG at 18 °C overnight. Cell pellets were stored at −80 °C for subsequent protein purification.
Protein purification of PTPs for enzymatic assays was conducted at 4 °C. Frozen cell pellets were lysed by sonication in 40 ml cold lysis buffer (50 mM Tris-HCl, pH 8.0, 150 mM NaCl, 5 mM imidazole, and 1 mM PMSF) per litre cell pellet. Cell lysates were clarified by centrifugation using a Beckman JA-18 rotor for 15 min at 5308 x g. The supernatant was incubated with HisPur Ni-NTA resin (Thermo Scientific) for 2 h and then packed onto a column and washed with 50 resin volume of buffer A (50 mM Tris-HCl, pH 8.0, 500 mM NaCl, 5 mM imidazole). The His-tagged proteins were eluted with Buffer B (50 mM Tris-HCl, pH=8.0, 500 mM NaCl, 300 mM imidazole,). Pooled His-protein-containing fractions were concentrated, loaded onto a HiLoad 26/600 Superdex 75 column (GE Healthcare Biosciences) and eluted with storage buffer (50 mM Tris-HCl, pH 8.0, 150 mM NaCl, 1 mM DTT, 10% glycerol). […] The protein was aliquoted and stored at −80 °C.
(§1) The PTP kinetic assay was modified from previous reported protocols[73],[74]. […] The fluorescence signal was measured using a CLARIOstar Plus Microplate Spectrophotometer (BMG Labtech) using excitation and emission wavelengths of 340 nm and 450 nm, respectively. […]
(§2) To determine the mode of inhibition, the reactions were initiated by the addition of enzyme (final concentration for PTP1B and PTPN2 was 0.05 nM) to the reaction mixtures (0.2 ml) containing various concentrations of DiFMUP with different concentrations of the inhibitor. […] The fluorescence signal was measured using a CLARIOstar Plus Microplate Spectrophotometer (BMG Labtech) using excitation and emission wavelength of 340 nm and 450 nm, respectively. […]

Test [2] concerns the target T2, PTP1B (Homo sapiens, UniProt P18031).
T2 construct: PTP1B, residues 1-321; made in house; host or cells: E. coli BL21(DE3)
T2 sequence (P18031 1-321): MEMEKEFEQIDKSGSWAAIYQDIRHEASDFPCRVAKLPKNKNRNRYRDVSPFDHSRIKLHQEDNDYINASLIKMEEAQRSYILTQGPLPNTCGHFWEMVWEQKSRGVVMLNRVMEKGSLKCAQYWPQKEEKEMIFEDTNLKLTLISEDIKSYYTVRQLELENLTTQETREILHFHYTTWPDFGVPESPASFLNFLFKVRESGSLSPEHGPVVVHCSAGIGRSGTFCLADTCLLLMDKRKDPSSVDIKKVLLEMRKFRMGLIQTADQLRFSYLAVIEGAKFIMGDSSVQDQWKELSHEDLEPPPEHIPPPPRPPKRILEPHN
Description: PTP inhibition assay with DiFMUP substrate (IC50). The format is biochemical. The protocol:
Cell pellets were stored at −80 °C for subsequent protein purification.
Protein purification of PTPs for enzymatic assays was conducted at 4 °C. Frozen cell pellets were lysed by sonication in 40 ml cold lysis buffer (50 mM Tris-HCl, pH 8.0, 150 mM NaCl, 5 mM imidazole, and 1 mM PMSF) per litre cell pellet. […] The supernatant was incubated with HisPur Ni-NTA resin (Thermo Scientific) for 2 h and then packed onto a column and washed with 50 resin volume of buffer A (50 mM Tris-HCl, pH 8.0, 500 mM NaCl, 5 mM imidazole). The His-tagged proteins were eluted with Buffer B (50 mM Tris-HCl, pH=8.0, 500 mM NaCl, 300 mM imidazole,). […]
as §1, §2

Usually IC50 stands for the concentration that gives 50% inhibition. A higher IC50 goes with weaker potency. For `CC(C)CCN[C@@H]1CCc2cc(O)c(N3CC(=O)NS3(=O)=O)c(F)c2C1` [ABBV-CLS-484], the IC50 came to 1.6 ± 0.06 nM in test [1] and 1.84 ± 0.09 nM in test [2] (DiFMUP 10 μM as substrate). For the same compound, in test [2] (PTP1B and PTPN2, same conditions), the “IC50 values relative to those of Compound 182” value is reported as “approximately 3 fold”.
